# Reference: article PMC10778704, “Comparative Analysis of Cyclization Techniques in Stapled Peptides: Structural Insights into Protein–Protein Interactions in a SARS-CoV-2 Spike RBD/hACE2 Model System” (International Journal of Molecular Sciences, 2023)
# Bridge positions count the residues as written; N and C are the ends. Square brackets hold non-standard residues; d marks the D form. Peptide text beside a SMILES is read from it. S5 = C=CCCC[C@](C)(N)C(=O)O
# System: SARS-CoV-2 pseudovirus
# Settings: 48 h, 735 μM
row,SMILES,Inhibition of the pseudovirus [%]
1,"CC(=O)N[C@@H](Cc1c[nH]cn1)C(=O)N[C@@H](CCC(=O)O)C(=O)N[C@@]1(C)CCC/C=C/CCC[C@@](C)(C(=O)N[C@@H](Cc2ccc(O)cc2)C(=O)N[C@@H](CCC(N)=O)C(N)=O)NC(=O)[C@H](CC(C)C)NC(=O)[C@H](CC(=O)O)NC(=O)[C@H](CCC(=O)O)NC1=O [peptide 11, Ac-NH-His-Glu-[S5-Glu-Asp-Leu-S5]-Tyr-Gln-CO-NH2] (Ac-HE[S5]EDL[S5]YQ-NH2; staple (E) 3-7)",68
2,"CC(=O)N[C@@H](Cc1c[nH]cn1)C(=O)N[C@@H](CCC(=O)O)C(=O)N[C@H]1CCCCNC(=O)C[C@@H](C(=O)N[C@@H](Cc2ccc(O)cc2)C(=O)N[C@@H](CCC(N)=O)C(N)=O)NC(=O)[C@H](CC(C)C)NC(=O)[C@H](CC(=O)O)NC(=O)[C@H](CCC(=O)O)NC1=O [peptide 4, Ac-NH-His-Glu-[Lys-Glu-Asp-Leu-Asp]-Tyr-Gln-CO-NH2] (Ac-HEKEDLDYQ-NH2; lactam 3-7)",48
